Laboratory results taken from patent publication US20060069132A1, “Azolecarboxamide herbicides” (priority 2004, published 2006).

Tests used:
wheat = experiment: Test B postemergence herbicide test; format: in vivo, Triticum aestivum; set-up: key to Wheat plant response rating: 0 = no effect, 100 = complete control; conditions: scale 0 (no effect) to 100 (complete control); for Wheat plant response rating: postemergence, visual rating
Outline: (§1)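 Each value is a visual 0–100 response rating taken against controls 13 to 15 days after treatment in the greenhouse. Plants received formulated chemical postemergence at the 1- to 4-leaf stage or, in flooded paddy, at the 2-leaf stage.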

corn = experiment: Test B pre-/postemergence herbicide test; format: in vivo, Zea mays
Outline: (§2)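 Response was scored visually 13 to 15 days after treatment against untreated greenhouse controls, 0 meaning no effect and 100 complete control. Formulations (solvent mixture plus surfactant) went onto soil after planting, onto foliage of 1- to 4-leaf plants, and onto 2-leaf plants in a flooded paddy set including rice and barnyardgrass.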

[1] = tested on: small flower umbrella sedge; experiment: Test B flooded paddy test; format: in vivo, Cyperus difformis; conditions: 1000 g ai/ha, visual rating, scale 0 to 100 (0 no effect, 100 complete control), 13 to 15 days
Outline: as §1

velvetleaf = experiment: Test B pre-/postemergence herbicide test; format: in vivo, Abutilon theophrasti
Outline: as §2

cocklebur = experiment: Test B pre-/postemergence herbicide test; format: in vivo, Xanthium strumarium
Outline: (§3)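 Evaluation is visual, comparing treated with control plants on a scale where 0 means no effect and 100 means full control. Treatments were preemergence, or postemergence on seedlings 2–18 cm tall, and held 13–15 days in the greenhouse.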

morningglory = experiment: Test B pre-/postemergence herbicide test; format: in vivo, Ipomoea coccinea
Outline: as §3

wild oat = experiment: Test B postemergence herbicide test; format: in vivo, Avena fatua; conditions: scale 0 (no effect) to 100 (complete control); for Oat, Wild plant response rating: postemergence, visual rating
Outline: as §1

ducksalad = experiment: Test B flooded paddy test; format: in vivo, Heteranthera limosa; conditions: 1000 g ai/ha, visual rating, scale 0 to 100 (0 no effect, 100 complete control), 13 to 15 days
Outline: as §1

lambsquarters = experiment: Test B pre-/postemergence herbicide test; format: in vivo, Chenopodium album
Outline: as §2

pigweed = experiment: Test B pre-/postemergence herbicide test; format: in vivo, Amaranthus retroflexus
Outline: as §2

giant foxtail = experiment: Test B pre-/postemergence herbicide test; format: in vivo, Setaria faberi
Outline: as §2

barnyardgrass [2] = experiment: Test B flooded paddy test; format: in vivo, Echinochloa crus-galli; conditions: 1000 g ai/ha, visual rating, scale 0 to 100 (0 no effect, 100 complete control), 13 to 15 days
Outline: as §1

blackgrass = experiment: Test B postemergence herbicide test; format: in vivo, Alopecurus myosuroides; conditions: scale 0 (no effect) to 100 (complete control); for Blackgrass plant response rating: postemergence, visual rating
Outline: as §1

barnyardgrass [3] = experiment: Test B pre-/postemergence herbicide test; format: in vivo, Echinochloa crus-galli
Outline: as §3

rice = experiment: Test B flooded paddy test; format: in vivo, Oryza sativa; conditions: 1000 g ai/ha, visual rating, scale 0 to 100 (0 no effect, 100 complete control), 13 to 15 days
Outline: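 Postemergence plants were sprayed with formulated test chemicals at 2 to 18 cm height (1- to 4-leaf stage); paddy species were grown to the 2-leaf stage. After 13 to 15 days in a greenhouse, injury was rated visually against untreated controls on a 0–100 scale (0 = no effect, 100 = complete control).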

[4] = 500 g ai/ha, visual rating 0-100, 0 no effect, 100 complete control, preemergence
[5] = postemergence, 125 g ai/ha, visual rating, scale 0 (no effect) to 100 (complete control)
[6] = postemergence, 500 g ai/ha, visual rating, scale 0 (no effect) to 100 (complete control)
[7] = preemergence, 125 g ai/ha, 0 to 100 scale, 0 is no effect, 100 is complete control
[8] = Postemergence, 500 g ai/ha, visual rating after 13 to 15 days
[9] = Postemergence, 500 g ai/ha, visual rating after 13 to 15 days, scale 0 (no effect) to 100 (complete control)
[10] = Preemergence, 500 g ai/ha, scale 0 to 100

Compound: CCn1nc(C(C)(C)C)cc1C(=O)Nc1cccc(OCCCF)c1 [Compound 138]
- Wheat plant response rating (wheat; 125 g ai/ha): 20
- Wheat plant response rating (wheat; 500 g ai/ha): 30
- Plant response rating, Corn (corn; [4]): 10
- Corn plant response rating (corn; [5]): 20
- Corn plant response rating (corn; [6]): 30
- Plant response rating, Corn (corn; [7]): 0
- Sedge, Umbrella plant response rating [1]: 80
- Plant response rating, Velvetleaf (velvetleaf; [4]): 40
- Velvetleaf plant response rating (velvetleaf; [5]): 20
- Velvetleaf plant response rating (velvetleaf; [6]): 50
- Plant response rating, Velvetleaf (velvetleaf; [7]): 0
- Plant response rating, Cocklebur (cocklebur; [4]): 10
- Cocklebur plant response rating (cocklebur; [5]): 40
- Cocklebur plant response rating (cocklebur; [6]): 90
- Plant response rating, Cocklebur (cocklebur; [7]): 0
- Plant response rating, Morningglory (morningglory; [4]): 20
- Morningglory plant response rating (morningglory; [5]): 20
- Morningglory plant response rating (morningglory; [6]): 60
- Plant response rating, Morningglory (morningglory; [7]): 0
- Oat, Wild plant response rating (wild oat; 125 g ai/ha): 20
- Oat, Wild plant response rating (wild oat; 500 g ai/ha): 30
- Ducksalad plant response rating (ducksalad): 80
- Plant response rating, Lambsquarters (lambsquarters; [4]): 100
- Lambsquarters plant response rating (lambsquarters; [5]): 80
- Lambsquarters plant response rating (lambsquarters; [6]): 90
- Plant response rating, Lambsquarters (lambsquarters; [7]): 0
- Plant response rating, Pigweed (pigweed; [4]): 100
- Pigweed plant response rating (pigweed; [5]): 60
- Pigweed plant response rating (pigweed; [6]): 90
- Plant response rating, Pigweed (pigweed; [7]): 60
- Plant response rating, Foxtail, Giant (giant foxtail; [4]): 70
- Foxtail, Giant plant response rating (giant foxtail; [5]): 20
- Foxtail, Giant plant response rating (giant foxtail; [6]): 30
- Plant response rating, Foxtail, Giant (giant foxtail; [7]): 30
- Barnyardgrass plant response rating (barnyardgrass [2]): 10
- Blackgrass plant response rating (blackgrass; 125 g ai/ha): 0
- Blackgrass plant response rating (blackgrass; 500 g ai/ha): 20
- Plant response rating, Barnyardgrass (barnyardgrass [3]; [4]): 70
- Barnyardgrass plant response rating (barnyardgrass [3]; [5]): 10
- Barnyardgrass plant response rating (barnyardgrass [3]; [6]): 20
- Plant response rating, Barnyardgrass (barnyardgrass [3]; [7]): 10
- Rice plant response rating (rice): 50

Compound: CCNC(=O)c1cccc(NC(=O)c2cc(C(C)(C)C)nn2CC)n1 [Compound 144]
- Wheat plant response rating (wheat; 500 g ai/ha): 30
- Plant response rating, Corn (corn; [4]): 10
- Corn plant response rating (corn; [5]): 20
- Corn plant response rating (corn; [6]): 30
- Plant response rating, Corn (corn; [7]): 10
- Sedge, Umbrella plant response rating [1]: 90
- Plant response rating, Velvetleaf (velvetleaf; [4]): 100
- Velvetleaf plant response rating (velvetleaf; [5]): 80
- Velvetleaf plant response rating (velvetleaf; [6]): 100
- Plant response rating, Velvetleaf (velvetleaf; [7]): 100
- Plant response rating, Cocklebur (cocklebur; [4]): 20
- Cocklebur plant response rating (cocklebur; [5]): 30
- Cocklebur plant response rating (cocklebur; [6]): 100
- Plant response rating, Cocklebur (cocklebur; [7]): 10
- Plant response rating, Morningglory (morningglory; [4]): 100
- Morningglory plant response rating (morningglory; [5]): 50
- Morningglory plant response rating (morningglory; [6]): 80
- Plant response rating, Morningglory (morningglory; [7]): 100
- Oat, Wild plant response rating (wild oat; 125 g ai/ha): 20
- Oat, Wild plant response rating (wild oat; 500 g ai/ha): 50
- Ducksalad plant response rating (ducksalad): 90
- Plant response rating, Lambsquarters (lambsquarters; [4]): 100
- Lambsquarters plant response rating (lambsquarters; [5]): 90
- Lambsquarters plant response rating (lambsquarters; [6]): 90
- Plant response rating, Lambsquarters (lambsquarters; [7]): 100
- Plant response rating, Pigweed (pigweed; [4]): 100
- Pigweed plant response rating (pigweed; [5]): 100
- Pigweed plant response rating (pigweed; [6]): 100
- Plant response rating, Pigweed (pigweed; [7]): 100
- Plant response rating, Foxtail, Giant (giant foxtail; [4]): 100
- Foxtail, Giant plant response rating (giant foxtail; [5]): 40
- Foxtail, Giant plant response rating (giant foxtail; [6]): 90
- Plant response rating, Foxtail, Giant (giant foxtail; [7]): 100
- Barnyardgrass plant response rating (barnyardgrass [2]): 80
- Blackgrass plant response rating (blackgrass; 125 g ai/ha): 20
- Blackgrass plant response rating (blackgrass; 500 g ai/ha): 60
- Plant response rating, Barnyardgrass (barnyardgrass [3]; [4]): 100
- Barnyardgrass plant response rating (barnyardgrass [3]; [5]): 70
- Barnyardgrass plant response rating (barnyardgrass [3]; [6]): 80
- Plant response rating, Barnyardgrass (barnyardgrass [3]; [7]): 90
- Rice plant response rating (rice): 70

Compound: CCn1nc(C(C)(C)C)cc1C(=O)Nc1cccc(C(=O)NC(C)C)c1 [Compound 51]
- Plant response rating, Wheat (wheat; [8]): 20
- Wheat plant response rating (wheat; 125 g ai/ha): 20
- Plant response rating, Corn (corn; [9]): 0
- Corn plant response rating (corn; [10]): 50
- Corn plant response rating (corn; [5]): 0
- Plant response rating, Corn (corn; [7]): 0
- Sedge, Umbrella plant response rating [1]: 80
- Plant response rating, Velvetleaf (velvetleaf; [9]): 70
- Velvetleaf plant response rating (velvetleaf; [10]): 100
- Velvetleaf plant response rating (velvetleaf; [5]): 60
- Plant response rating, Velvetleaf (velvetleaf; [7]): 50
- Plant response rating, Cocklebur (cocklebur; [9]): 80
- Cocklebur plant response rating (cocklebur; [10]): 50
- Cocklebur plant response rating (cocklebur; [5]): 70
- Plant response rating, Cocklebur (cocklebur; [7]): 0
- Plant response rating, Morningglory (morningglory; [9]): 0
- Morningglory plant response rating (morningglory; [10]): 0
- Morningglory plant response rating (morningglory; [5]): 0
- Plant response rating, Morningglory (morningglory; [7]): 0
- Plant response rating, Oat, Wild (wild oat; [8]): 10
- Oat, Wild plant response rating (wild oat; 125 g ai/ha): 0
- Ducksalad plant response rating (ducksalad): 80
- Plant response rating, Lambsquarters (lambsquarters; [9]): 90
- Lambsquarters plant response rating (lambsquarters; [10]): 100
- Lambsquarters plant response rating (lambsquarters; [5]): 80
- Plant response rating, Lambsquarters (lambsquarters; [7]): 100
- Plant response rating, Pigweed (pigweed; [9]): 100
- Pigweed plant response rating (pigweed; [10]): 100
- Pigweed plant response rating (pigweed; [5]): 80
- Plant response rating, Pigweed (pigweed; [7]): 100
- Plant response rating, Foxtail, Giant (giant foxtail; [9]): 0
- Foxtail, Giant plant response rating (giant foxtail; [10]): 100
- Foxtail, Giant plant response rating (giant foxtail; [5]): 0
- Plant response rating, Foxtail, Giant (giant foxtail; [7]): 100
- Barnyardgrass plant response rating (barnyardgrass [2]): 90
- Plant response rating, Blackgrass (blackgrass; [8]): 0
- Blackgrass plant response rating (blackgrass; 125 g ai/ha): 0
- Plant response rating, Barnyardgrass (barnyardgrass [3]; [9]): 80
- Barnyardgrass plant response rating (barnyardgrass [3]; [10]): 100
- Barnyardgrass plant response rating (barnyardgrass [3]; [5]): 60
- Plant response rating, Barnyardgrass (barnyardgrass [3]; [7]): 80
- Rice plant response rating (rice): 70
